Measured values: PubChem BioAssay AID1963972 (Molecular Pharmacology Branch, DTP, NCI, 2024)
Values joined by “and” are separate entries in the source; they are usually repeats but may differ in a detail not shown here. Identical values can stand only once.

Tested on: 945468-187-T-J2-PDC spheroids viability
Experiment: Anticancer human tumor 945468-187-T-J2-PDC patient-derived rectal carcinoma cell line growth inhibition [PI3K]
Settings: spheroids with HUVEC and MSC; for viability, T/C: stronger effect = lower value
Text: Combinatorial screen of targeted agents with the PI3K inhibitors inavolisib, alpelisib, duvelisib, and copanlisib in multi-cell type tumor spheroids
A high-throughput screen of multi-cell type tumor spheroids was designed to identify active combinations of targeted small molecules and PI3K pathway inhibitors. Complex spheroids include a stromal component modeled by human endothelial cells (HUVEC) and fibroblasts modeled by human mesenchymal stem cells (MSCs). The concentration ranges selected for each drug and investigational agent were based upon clinically achievable concentrations if the clinical Cmax of the agent was known.
Compounds. The drugs and investigational agents: inavolisib (NSC800729), alpelisib (NSC765974), duvelisib (NSC772469), copanlisib (NSC816437), ipatasertib (NSC767898), afuresertib (NSC778305), talazoparib (NSC767125), sapanisertib (NSC764658), selumetinib (NSC741078), tovorafenib (DAY101, NSC766906), vemurafenib (NSC761431), ravoxertinib (NSC781343), sotorasib (NSC818433), MRTX1133 (NSC 836407), abemaciclib (NSC 768073), palbociclib (NSC758247), venetoclax (NSC 766270), SY5609 (NSC837396), enzalutamide (NSC755605), and darolutamide (NSC825331), were obtained from the National Cancer Institute (NCI) Developmental Therapeutics Program Chemical Repository. The FDA-approved anticancer drug set is available from the NCI Developmental Therapeutics Program. […] The stock solutions were prepared in dimethyl sulfoxide (DMSO, Sigma-Aldrich, St. Louis, MO, cat. D2650) at 800-fold the tested concentration and stored at -70 degrees C prior to their use. All drugs and investigational agents were tested over a range starting from a high concentration at or near the clinical Cmax and decreasing in half-log increments. If the clinical Cmax for an agent had not been determined, the highest concentration tested was 10 microM.
Cell Culture. All cells were maintained in an incubator at 37 degrees C and 5% CO2 with 95% humidity. The PDC lines were cultured according to standard operating procedures established by the NCI PDMR (https://pdmr.cancer.gov/sops/default.htm). All PDCs were thawed and cultured in Matrigel-coated flasks prepared with a working solution of 1X Ham's F-12 nutrient mix, without supplementation (Invitrogen, Waltham, MA, cat. 11765054), 100 U/mL penicillin-streptomycin (Invitrogen, cat. 15140122), and 2.5% Matrigel (Corning Inc., Corning, NY, cat. 354248) for the first three passages. The 354836-022-R-J1-PDC, 475296-252-R-J1-PDC, and 997726-040-R-J2-PDC lines were cultured in 6A media, which includes advanced DMEM/F-12 (Thermo Fisher Scientific, cat. 12634028), 10 mM HEPES (Thermo Fisher Scientific, cat. 15630080), 1X GlutaMAX supplement (Thermo Fisher Scientific, cat. 35050061), 0.1 mg/mL primocin (InvivoGen, San Diego, CA, cat. ant-pm-2), 10% defined fetal bovine serum, heat inactivated (HyClone Laboratories Inc., Logan, UT, cat. SH30070.03HI), 50% L-WRN conditioned media (ATCC, cat. CRL-3276), 1.25 mM N-Acetyl-L-cysteine (Sigma-Aldrich, cat. A9165), 10 mM nicotinamide (Sigma-Aldrich, cat. N0636), 1X B-27 supplement (Thermo Fisher Scientific, cat. 17504044), 1X N-2 supplement (Thermo Fisher Scientific, cat. 17502048), and 10 microM Y-27632 dihydrochloride (Tocris Bioscience, Bristol, United Kingdom, cat. 1254). The 624824-186-R-J2-PDC line was cultured in 6C/Colon 1B media, which includes all 6A media components plus 50 ng/mL human EGF recombinant protein (Thermo Fisher Scientific, cat. PHG0311). […]

[1] = compound alone, run of 04/24/2023
[2] = compound alone, run of 04/25/2023
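Note: spheroids exposed to compounds for seven days before reading.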

| SMILES | IC50 (curve of compound) | viability, T/C (compound 0.0316 µM) | viability, T/C (compound 0.316 µM) | viability, T/C (compound 0.1 µM) | viability, T/C (compound 3.16 µM) | viability, T/C (compound 1 µM) | further results |
| --- | --- | --- | --- | --- | --- | --- | --- |
| CC(Cn1ccc(-c2ccc(C#N)c(Cl)c2)n1)NC(=O)c1cc(C(C)O)[nH]n1 (stereo not given) | > 10 µM | – | – | – | 93.7% [middle of 4 runs] | – | – |
| CC(Nc1ccc2c(c1)OCCn1cc(N3C(=O)OCC3C(F)F)nc1-2)C(N)=O (stereo not given) | – | – | 91.7% [middle of 8 runs] | 106% [middle of 8 runs] | – | 76.9% [middle of 8 runs] | viability, T/C (compound 0.01 µM): 99% [middle of 8 runs]; IC50 [1]: > 1 µM |
| CC(Nc1ncnc2nc[nH]c12)c1cc2cccc(Cl)c2c(=O)n1-c1ccccc1 (stereo not given) | – | – | 96.3% [middle of 8 runs] | 91.9% [middle of 8 runs] | – | – | viability, T/C (compound 10 µM): 103% [middle of 8 runs]; IC50 [2]: > 10 µM |
| CC1(C)CCC(CN2CCN(c3ccc(C(=O)NS(=O)(=O)c4ccc(NCC5CCOCC5)c([N+](=O)[O-])c4)c(Oc4cnc5[nH]ccc5c4)c3)CC2)=C(c2ccc(Cl)cc2)C1 | > 10 µM | – | 94.6% [middle of 4 runs] | – | 96.3% [middle of 4 runs] | 103% [middle of 4 runs] | – |
| CC1(C)CCC(Nc2ncc(C(F)(F)F)c(-c3c[nH]c4c(P(C)(C)=O)c(C#N)ccc34)n2)CN1 (stereo not given) | – | 94.2% (2×) and 113% and 89.1% | – | 96.6% [middle of 4 runs] | 43% [middle of 4 runs] | – | – |
| CCN1CCN(Cc2ccc(Nc3ncc(F)c(-c4cc(F)c5nc(C)n(C(C)C)c5c4)n3)nc2)CC1 | > 1 µM | – | 98.3% [middle of 4 runs] | – | – | 78% [middle of 4 runs] | viability, T/C (compound 0.00316 µM): 98.9% [middle of 4 runs] |
| COc1c(OCCCN2CCOCC2)ccc2c3n(c(=NC(=O)c4cnc(N)nc4)nc12)CCN3 | – | – | 40.8% [middle of 8 runs] | – | – | 22.5% [middle of 8 runs] | viability, T/C (compound 0.00316 µM): 102% [middle of 8 runs]; IC50 [2]: 250 nM [middle of 7 runs] |
| C[C@@H](NC(=O)c1ncnc(N)c1Cl)c1ncc(C(=O)Nc2cc(C(F)(F)F)c(Cl)cn2)s1 | > 10 µM | 115% [middle of 4 runs] | 107% [middle of 4 runs] | 95.1% [middle of 4 runs] | – | – | viability, T/C (compound 10 µM): 94.3% [middle of 4 runs] |
| Cc1nc(NC(=O)N2CCCC2C(N)=O)sc1-c1ccnc(C(C)(C)C(F)(F)F)c1 (stereo not given) | – | 95.8% [middle of 8 runs] | – | 97.5% [middle of 8 runs] | – | – | IC50 [1]: > 10 µM |
| Cn1cnc2c(F)c(Nc3ccc(Br)cc3Cl)c(C(=O)NOCCO)cc21 | > 3 µM | – | – | – | – | – | viability, T/C (compound 0.949 µM): 83.3% [middle of 4 runs]; viability, T/C (compound 3 µM): 79.8% [middle of 4 runs] |
| Cn1ncc(Cl)c1-c1cc(C(=O)NC(CN)Cc2cccc(F)c2)sc1Cl (stereo not given) | > 10 µM | – | – | 90.9% [middle of 4 runs] | 76.5% [middle of 4 runs] | 84.6% [middle of 4 runs] | – |
| Cn1nccc1Nc1nccc(-c2ccn(C(CO)c3ccc(Cl)c(F)c3)c(=O)c2)n1 (stereo not given) | > 10 µM | – | 101% (2×) and 108% and 94.5% | 101% [middle of 4 runs] | 94.1% [middle of 4 runs] | – | viability, T/C (compound 10 µM): 78.3% [middle of 4 runs] |
| Cn1ncnc1[C@H]1c2n[nH]c(=O)c3cc(F)cc(c23)N[C@@H]1c1ccc(F)cc1 | > 0.1 µM | 110% (2×) and 104% and 93.3% | – | 104% [middle of 4 runs] | – | – | viability, T/C (compound 0.000316 µM): 105% [middle of 4 runs]; viability, T/C (compound 0.00316 µM): 93.9% [middle of 4 runs]; viability, T/C (compound 0.01 µM): 88.9% [middle of 4 runs] |

More lines, main results first:

| IC50 (curve of compound) | SMILES | viability, T/C (compound 0.0316 µM) | viability, T/C (compound 0.316 µM) | viability, T/C (compound 0.1 µM) | viability, T/C (compound 3.16 µM) | viability, T/C (compound 1 µM) | further results |
| --- | --- | --- | --- | --- | --- | --- | --- |
| > 10 µM | C#Cc1c(F)ccc2cc(O)cc(-c3ncc4c(N5CC6CCC(C5)N6)nc(OCC56CCCN5CC(F)C6)nc4c3F)c12 (stereo not given) | 109% [middle of 4 runs] | 106% (2×) and 90.2% and 116% | – | – | – | – |
| > 10 µM | C=CC(=O)N1CCN(c2nc(=O)n(-c3c(C)ccnc3C(C)C)c3nc(-c4c(O)cccc4F)c(F)cc23)C(C)C1 (stereo not given) | – | 95.7% [middle of 4 runs] | 104% [middle of 4 runs] | 104% (2×) and 113% and 89.9% | – | viability, T/C (compound 10 µM): 107% [middle of 4 runs] |
| > 0.1 µM | CC(=O)c1c(C)c2cnc(Nc3ccc(N4CCNCC4)cn3)nc2n(C2CCCC2)c1=O | – | – | – | – | – | viability, T/C (compound 0.000316 µM): 105% [middle of 4 runs]; viability, T/C (compound 0.00316 µM): 90.6% [middle of 4 runs]; viability, T/C (compound 0.01 µM): 104% [middle of 4 runs] |
| > 10 µM | CC(C)NCC(C(=O)N1CCN(c2ncnc3c2C(C)CC3O)CC1)c1ccc(Cl)cc1 (stereo not given) | – | 90.2% [middle of 4 runs] | 91.8% [middle of 4 runs] | 99.7% [middle of 4 runs] | 103% [middle of 4 runs] | – |
| > 0.1 µM | CC(C)n1nc(-c2ccc3oc(N)nc3c2)c2c(N)ncnc21 | 94.4% [middle of 4 runs] | – | 71.9% [middle of 4 runs] | – | – | viability, T/C (compound 0.001 µM): 92.3% [middle of 4 runs] |
| 5.05 µM [middle of 4 runs] | CCCS(=O)(=O)Nc1ccc(F)c(C(=O)c2c[nH]c3ncc(-c4ccc(Cl)cc4)cc23)c1F | 104% [middle of 4 runs] | 94% [middle of 4 runs] | 88.8% [middle of 4 runs] | – | 99.4% [middle of 4 runs] | viability, T/C (compound 10 µM): 5.55% [middle of 4 runs] |
| > 10 µM | CNC(=O)c1ccc(N2C(=S)N(c3ccc(C#N)c(C(F)(F)F)c3)C(=O)C2(C)C)cc1F | 92.1% [middle of 4 runs] | 89% [middle of 4 runs] | 106% (2×) and 93.2% and 121% | 91.6% [middle of 4 runs] | 85.3% [middle of 4 runs] | – |
